Assay results from ChEMBL document CHEMBL5046244, “Targeted Covalent Inhibition of Small CTD Phosphatase 1 to Promote the Degradation of the REST Transcription Factor in Human Cells” (J Med Chem, 2022).
Activity calls are given as the source filed them. The rule behind the calls is not given here.

Molecular target: T1, Carboxy-terminal domain RNA polymerase II polypeptide A small phosphatase 1 (Homo sapiens) (UniProt Q9GZU7)
T1 sequence (whole entry): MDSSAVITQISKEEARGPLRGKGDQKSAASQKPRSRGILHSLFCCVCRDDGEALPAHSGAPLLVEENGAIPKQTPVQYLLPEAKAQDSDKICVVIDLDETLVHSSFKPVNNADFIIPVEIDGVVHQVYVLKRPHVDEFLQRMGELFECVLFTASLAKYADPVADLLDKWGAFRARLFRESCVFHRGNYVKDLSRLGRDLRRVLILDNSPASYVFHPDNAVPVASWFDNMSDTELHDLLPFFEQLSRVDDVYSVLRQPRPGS
Experiment: Binding affinity to wild type human SCP1 assessed as covalent bond formation at 50 uM incubated for 18 hrs

Activity: inactive
Structure (SMILES): C#CCCC(=O)NCCCNC(=O)C1=Cc2ccccc2S1(=O)=O
